The subject of assay [1] is CT26 cells. The experiment in a line: Tumor inhibitory effect, CT26 tumor re-excitation model. Type of assay: in vivo, mice. How it is done:
The tumor regression of each group of mice in the CT26 anti-tumor efficacy model of the above experimental example 4 was further observed. After 30 days of the last administration, CT26 cells were inoculated subcutaneously on the back. Each mouse was inoculated with 100 μL cell suspension containing 5×10^5 cells; mice that have not been treated with drugs were used as a control group to inoculate CT26 cells in the same way. The tumor was observed and the growth of the tumor was recorded.

In assay [2] the target is T1, Sting protein (Homo sapiens, UniProt Q86WV6, G230A/H232R/R293Q/R71H).
T1 construct: endogenous in cells; host or cells: THP1 cells (Shanghai Cell Bank)
T1 sequence (Q86WV6 whole entry R71H/G230A/H232R/R293Q): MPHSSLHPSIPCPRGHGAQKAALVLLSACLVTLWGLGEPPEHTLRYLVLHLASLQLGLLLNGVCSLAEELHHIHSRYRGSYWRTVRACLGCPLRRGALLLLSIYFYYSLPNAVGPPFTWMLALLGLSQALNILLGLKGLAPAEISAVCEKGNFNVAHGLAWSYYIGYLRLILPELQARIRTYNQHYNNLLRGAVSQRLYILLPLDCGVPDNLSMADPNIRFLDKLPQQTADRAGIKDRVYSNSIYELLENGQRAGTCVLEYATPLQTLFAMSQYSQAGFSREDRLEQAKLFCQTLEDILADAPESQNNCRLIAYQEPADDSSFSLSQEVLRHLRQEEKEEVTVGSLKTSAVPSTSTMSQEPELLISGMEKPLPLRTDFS
The experiment in a line: Agonistic function test on Sting protein: IFN-β and CXCL10 (IP10) cytokines produced by THP1 cells (ELISA). Type of assay: cell-based. As to conditions: for EC50: 18 hours, ELISA of supernatant; for activity of stimulating IFN-β and CXCL10 (IP10) cytokines produced by THP1 cells (in words): listed compounds compared with the reference compound. As for the experimental part: In this experiment, the function of sting agonist was evaluated by detecting the changes of IFN-β and CXCL10 (IP10) cytokines produced by human peripheral blood mononuclear cell line THP1 cells (Shanghai Cell Bank) stimulated by the compounds. On the first day of the experiment, the ELISA plate was coated according to the IFN-β (R&D, #DY814-05) and IP10 (BD, #550926) ELISA test kit instructions. The compound was dissolved into DMSO stock solution and diluted with culture medium to a 2× working concentration, added to a 96-well plate, 100 μL per well. The THP1 cells in the logarithmic growth phase were taken to count, and were diluted to a concentration of 2*10^6/mL, added to the above-mentioned 96-well plate containing the compounds, with […], per well, mixed well, and incubated in a 37° C., 5% CO2 incubator for 18 hours. On the second day, the above cell culture supernatant was taken, 100 μL per well, and tested according to IFN-β and IP10 ELISA test kits respectively. The OD450 value was read, and converted into IFN-β and IP10 concentration according to the standard curve, and fitted with GraphPad 5.0 to calculate the EC50 value of the dose-efficiency curve.
In general terms: An ELISA detects its analyte on a solid surface through an enzyme-linked reagent.

The target in assay [3] is Sting protein (Homo sapiens, UniProt Q86WV6). In words: Binding affinity test of the compound and Sting protein by protein thermal transfer test (TSA). The note with it: Kd fitted from change of ΔTm with compound concentration. How it is done: The protein thermal transfer test (TSA) was used to determine the binding affinity of the compound to Sting protein. The 100 ug/ml Sting protein was mixed with different concentrations of the compound and 5× SYPRO Orange dye in a buffer of 20 mM Hepes, 150 mM NaCl, 1 mM MgCl2, 1 mM DTT, pH=7.5. The protein dissolution curve was measured on a qPCR instrument, the Tm value was fitted with Protein Thermal Shift Software 1.3 software, and the Tm difference of the protein was calculated when different concentrations of compound and no compound were added. The dissociation constant Kd was fitted and obtained according to the change of ΔTm with the concentration of the compound. […] The Kd value of each compound is classified according to the following instructions: […]
Chain of Sting protein (Homo sapiens, UniProt Q86WV6) (Q86WV6 whole entry H232R, species assumed): as the sequence (Q86WV6 whole entry R71H/G230A/H232R/R293Q) above, with H71R, A230G, Q293R counted along it

The structures appear in SMILES notation. Read-outs that look alike come from different tables or passages of the source. Some results are limits rather than exact numbers.

In the case of `CCc1nc(C)sc1C(=O)Nc1nc2cc(C(N)=O)cc(OC)c2n1C/C=C/Cn1c(NC(=O)c2cc(C)nn2CC)nc2cc(C(N)=O)cc(OCCCN3CCN(C4CC4)CC3)c21` [Example 15], the “tumor curve in CT26 tumor re-excitation model (FIG. 2)” value (“tumor curve” below) in assay [1] (1 mg/kg) and in assay [1] (3 mg/kg) was “overlap” throughout. The EC50 in assay [2] (read-out: IFN-β EC50) and in assay [2] (read-out: IP10 EC50) was 10 to 100 nM in each case. The “activity of stimulating IFN-β and CXCL10 (IP10) cytokines produced by THP1 cells (in words)” value (“activity of stimulating IFN-β and CXCL10” for short) in assay [2] is reported as “comparable or even higher activity”. For the same molecule, the Kd in assay [3] was 1000 to 10000 nM.
Consider `CCc1nc(C)sc1C(=O)Nc1nc2cc(C(N)=O)cc(SC)c2n1C/C=C/Cn1c(NC(=O)c2cc(C)nn2CC)nc2cc(C(N)=O)cc(OCCCN3CCOCC3)c21` [Example 5], for which the “tumor curve” value in assay [1] (1.5 mg/kg) is reported as “overlap”. Moreover, the figures for the 50% effective concentration (EC50) in assay [2] (read-out: IFN-β EC50) and in assay [2] (read-out: IP10 EC50) were 10 to 100 nM and < 10 nM, respectively. For the same molecule, the “activity of stimulating IFN-β and CXCL10” value in assay [2] is on record as “comparable or even higher activity”. For the same molecule, the Kd in assay [3] lay in the range of 1000 to 10000 nM.
For `CCc1nc(C)sc1C(=O)Nc1nc2cc(C(N)=O)cc(OCCCN3CCN(CC)CC3)c2n1C/C=C/Cn1c(NC(=O)c2cc(C)nn2CC)nc2cc(C(N)=O)cc(SC)c21` [Example 17], the “tumor curve” value in assay [1] (1.5 mg/kg) is listed as “overlap”. The EC50 in assay [2] (read-out: IFN-β EC50) lay within 100 to 1000 nM; in assay [2] (read-out: IP10 EC50), 10 to 100 nM. Also, the Kd in assay [3] fell in the range of 1000 to 10000 nM.
With `CCc1nc(C)sc1C(=O)Nc1nc2cc(C(N)=O)cc(OC)c2n1C/C=C/Cn1c(NC(=O)c2cc(C)nn2CC)nc2cc(C(N)=O)cc(OCCCN3CCOCC3)c21` [Example 2, (E)-N-(5-carbamoyl-1-(4-(5-carbamoyl-2-(1-ethyl-3-methyl-1H-pyrazole-5-formylamino)-7-(3-morpholino)-1H-benzo[d]imidazol-1-yl)but-2-en-1-yl)-7-methoxy-1H-benzo[d]imidazol-2-yl)-4-ethyl-2-methylthiazole-5-formamide], the “tumor curve” value in assay [1] (1.5 mg/kg) and in assay [1] (4.5 mg/kg) was “overlap” each time. Also, the concentration for a half-maximal effect (EC50) in assay [2] (read-out: IFN-β EC50) and in assay [2] (read-out: IP10 EC50) was 10 to 100 nM in each case. Further, the “activity of stimulating IFN-β and CXCL10” value in assay [2] is recorded as “comparable or even higher activity”. In assay [3], the Kd lay in the range of 1000 to 10000 nM.
`CCc1nc(C)sc1C(=O)Nc1nc2cc(C(N)=O)cc(OCCCN3CCOCC3)c2n1C/C=C/Cn1c(NC(=O)c2sc(C)nc2CC)nc2cc(C(N)=O)cc(SC)c21` [Example 50]: the 50% effective concentration (EC50) in assay [2] (read-out: IFN-β EC50) and in assay [2] (read-out: IP10 EC50) was 10 to 100 nM each time. Further, the “activity of stimulating IFN-β and CXCL10” value in assay [2] is “comparable or even higher activity”. Moreover, the Kd in assay [3] lay in the range of 1000 to 10000 nM.
Regarding `CCc1nc(C)sc1C(=O)Nc1nc2cc(C(N)=O)cc(SC)c2n1C/C=C/Cn1c(NC(=O)c2cc(C)nn2CC)nc2cc(C(N)=O)cc(OCCCN3CCN(CC)CC3)c21` [Example 21], the concentration giving a half-maximal response (EC50) fell in the range of 100 to 1000 nM in assay [2] (read-out: IFN-β EC50) and 10 to 100 nM in assay [2] (read-out: IP10 EC50). Also, the dissociation constant (Kd) in assay [3] is 1000 to 10000 nM.
As for `CCc1nc(C)sc1C(=O)Nc1nc2cc(C(N)=O)cc(OCCCN3CCOCC3)c2n1C/C=C/Cn1c(NC(=O)c2cc(C)nn2CC)nc2cc(C(N)=O)cc(SC)c21` [Example 4], the concentration for a half-maximal effect (EC50) is 10 to 100 nM in assay [2] (read-out: IFN-β EC50) and < 10 nM in assay [2] (read-out: IP10 EC50). In addition, the “activity of stimulating IFN-β and CXCL10” value in assay [2] is “comparable or even higher activity”. Further, the dissociation constant (Kd) in assay [3] is 1000 to 10000 nM.
Take `CCc1nc(C)sc1C(=O)Nc1nc2cc(C(N)=O)cc(OCCCN3CCN(C)CC3)c2n1C/C=C/Cn1c(NC(=O)c2cc(C)nn2CC)nc2cc(C(N)=O)cc(OC)c21` [Example 7, (E)-N-(5-carbamoyl-1-(4-(5-carbamoyl-2-(1-ethyl-3-methyl-1H-pyrazole-5-formylamino)-7-methoxy-1H-benzo[d]imidazol-1-yl)but-2-en-1-yl)-7-(3-(4-methylpiperazin-1-yl)propoxy)-1H-benzo[d]imidazol-2-yl)-4-ethyl-2-methylthiazole-5-formylamide]: the EC50 in assay [2] (read-out: IFN-β EC50) and in assay [2] (read-out: IP10 EC50) was 100 to 1000 nM in each case. The Kd in assay [3] fell in the range of 1000 to 10000 nM.
In the case of `CCc1nc(C)sc1C(=O)Nc1nc2cc(C(N)=O)cc(OC)c2n1C/C=C/Cn1c(NC(=O)c2cc(C)nn2CC)nc2cc(C(N)=O)cc(OCCCN3CCN(C(C)C)CC3)c21` [Example 14], the EC50 in assay [2] (read-out: IFN-β EC50) and in assay [2] (read-out: IP10 EC50) was 100 to 1000 nM in each case. In addition, the Kd in assay [3] was 1000 to 10000 nM.
For `CCn1nc(C)cc1C(=O)Nc1nc2cc(C(N)=O)cc(SC)c2n1C/C=C/Cn1c(NC(=O)c2c(F)c(C)nn2CC)nc2cc(C(N)=O)cc(OCCCN3CCOCC3)c21` [Example 51, (E)-1-(4-(5-(5-carbamoyl-2-)(1-styrene-3-methyl-1H-pyrazole-5-formylamino)-7-(methylthio)-1H-benzo[d]imidazol-1-yl)but-2-en-1-yl)-2-(1-styrene-4-fluoro-3-methyl-1H-pyrazole-5-anthralamido)-7-(3-morpholinopropoxy)-1H-benzo[d]imidazole-5-formylamide], the concentration giving a half-maximal response (EC50) is 10 to 100 nM in assay [2] (read-out: IFN-β EC50) and < 10 nM in assay [2] (read-out: IP10 EC50). In addition, the “activity of stimulating IFN-β and CXCL10” value in assay [2] is recorded as “comparable or even higher activity”. For the same molecule, in assay [3], the dissociation constant Kd fell in the range of 1000 to 10000 nM.
With `CCc1nc(C)sc1C(=O)Nc1nc2cc(C(N)=O)cc(OC)c2n1C/C=C/Cn1c(NC(=O)c2cc(C)nn2CC)nc2cc(C(N)=O)cc(OCCCN3CCN(C(C)=O)CC3)c21` [Example 29], the “tumor curve” value in assay [1] (1 mg/kg) is “overlap”. For the same molecule, the EC50 in assay [2] (read-out: IFN-β EC50) lay within 100 to 1000 nM; in assay [2] (read-out: IP10 EC50), 10 to 100 nM. Also, in assay [3], the dissociation constant Kd lay in the range of 1000 to 10000 nM.
As to `CCc1nc(C)sc1C(=O)Nc1nc2cc(C(N)=O)cc(SC)c2n1C/C=C/Cn1c(NC(=O)c2cc(C)nn2CC)nc2cc(C(N)=O)cc(OCCCN3CCN(C)CC3)c21` [Example 20], the 50% effective concentration (EC50) in assay [2] (read-out: IFN-β EC50) was in the range of 100 to 1000 nM; in assay [2] (read-out: IP10 EC50), 10 to 100 nM. Also, the Kd in assay [3] was in the range of 1000 to 10000 nM.

As usually defined, the EC50 is the concentration that produces a half-maximal response. By Kd is commonly meant the concentration at which binding is half-saturated.

Values taken from patent US20220119379A1, “IMMUNOMODULATOR” (HITGEN INC., priority 2019, published 2022).
